Test results published in patent publication US6392025B1, “Human NHE3 protein and non-human cells expressing same” (Tranzmembrane, LLC, priority 1995, dated 2002).
pIC50: −log10 of the molar value. Entries after “also recorded” stand apart in the source; their conditions may differ. Like-named read-outs stand apart in the source and are kept apart here.

What was measured:
Rat NHE3 = Rat NHE3 (Rattus norvegicus, UniProt P26433); details: read-out: Inhibition constants (IC50); cited from earlier work
Rat NHE3, sequence (P26433 29-831): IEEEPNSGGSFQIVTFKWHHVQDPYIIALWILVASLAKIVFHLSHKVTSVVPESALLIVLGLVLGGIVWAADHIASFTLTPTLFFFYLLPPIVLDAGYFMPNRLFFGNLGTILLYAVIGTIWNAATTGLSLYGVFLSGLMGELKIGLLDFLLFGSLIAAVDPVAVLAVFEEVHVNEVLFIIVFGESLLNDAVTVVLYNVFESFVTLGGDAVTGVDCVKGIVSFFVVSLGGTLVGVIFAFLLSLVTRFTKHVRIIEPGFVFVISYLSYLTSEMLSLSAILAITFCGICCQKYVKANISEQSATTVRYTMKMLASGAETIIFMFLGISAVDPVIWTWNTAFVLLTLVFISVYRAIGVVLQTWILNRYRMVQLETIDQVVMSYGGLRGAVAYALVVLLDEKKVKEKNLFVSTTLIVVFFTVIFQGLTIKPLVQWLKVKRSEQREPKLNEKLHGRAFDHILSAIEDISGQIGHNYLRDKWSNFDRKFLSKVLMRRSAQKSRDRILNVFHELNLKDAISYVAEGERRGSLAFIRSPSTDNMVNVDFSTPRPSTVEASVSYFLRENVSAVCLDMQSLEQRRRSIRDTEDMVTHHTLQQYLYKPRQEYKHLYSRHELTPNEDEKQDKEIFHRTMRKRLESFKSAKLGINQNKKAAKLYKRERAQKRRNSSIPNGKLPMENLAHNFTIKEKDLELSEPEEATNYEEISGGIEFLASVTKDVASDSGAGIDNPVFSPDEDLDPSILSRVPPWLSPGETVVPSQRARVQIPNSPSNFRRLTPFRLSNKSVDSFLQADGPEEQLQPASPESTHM

Rabbit NHE3 = Rabbit NHE3 (Oryctolagus cuniculus, UniProt P26432); details: read-out: Inhibition constants (IC50); cited from earlier work
Rabbit NHE3, sequence (P26432 30-832): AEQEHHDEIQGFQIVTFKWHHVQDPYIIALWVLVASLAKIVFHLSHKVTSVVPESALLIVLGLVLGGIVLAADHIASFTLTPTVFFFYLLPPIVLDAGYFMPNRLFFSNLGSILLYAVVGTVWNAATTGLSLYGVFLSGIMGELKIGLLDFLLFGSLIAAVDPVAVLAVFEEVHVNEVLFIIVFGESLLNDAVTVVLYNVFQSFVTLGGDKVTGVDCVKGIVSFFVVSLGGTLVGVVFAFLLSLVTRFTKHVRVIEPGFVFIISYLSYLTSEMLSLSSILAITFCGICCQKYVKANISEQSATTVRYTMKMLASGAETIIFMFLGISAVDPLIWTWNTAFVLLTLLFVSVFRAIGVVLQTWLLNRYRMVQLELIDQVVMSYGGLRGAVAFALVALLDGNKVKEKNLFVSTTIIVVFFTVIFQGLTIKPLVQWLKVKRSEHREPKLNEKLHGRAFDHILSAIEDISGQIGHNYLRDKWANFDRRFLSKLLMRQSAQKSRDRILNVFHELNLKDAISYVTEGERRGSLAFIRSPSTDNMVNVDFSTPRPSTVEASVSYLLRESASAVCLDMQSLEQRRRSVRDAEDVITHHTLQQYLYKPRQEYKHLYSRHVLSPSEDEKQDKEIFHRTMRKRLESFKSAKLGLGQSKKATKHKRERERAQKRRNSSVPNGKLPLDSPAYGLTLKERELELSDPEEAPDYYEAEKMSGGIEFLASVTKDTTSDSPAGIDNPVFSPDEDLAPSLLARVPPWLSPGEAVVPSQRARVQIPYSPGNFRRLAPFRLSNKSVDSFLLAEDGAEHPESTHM

human NHE3 [1] = target: T1, human NHE3 (Homo sapiens, UniProt P48764); experiment: 22Na+ uptake in acid loaded HNHE3/PS120 cells; format: cell-based; details: 22Na+ 1 mM
T1 construct: expressed in transfected cells; host or cells: PS120 (Na+/H+ exchanger deficient derivative of Chinese hamster lung fibroblast line CCL39), plasmid pEH3 (pECE vector)
T1 sequence (P48764 26-834): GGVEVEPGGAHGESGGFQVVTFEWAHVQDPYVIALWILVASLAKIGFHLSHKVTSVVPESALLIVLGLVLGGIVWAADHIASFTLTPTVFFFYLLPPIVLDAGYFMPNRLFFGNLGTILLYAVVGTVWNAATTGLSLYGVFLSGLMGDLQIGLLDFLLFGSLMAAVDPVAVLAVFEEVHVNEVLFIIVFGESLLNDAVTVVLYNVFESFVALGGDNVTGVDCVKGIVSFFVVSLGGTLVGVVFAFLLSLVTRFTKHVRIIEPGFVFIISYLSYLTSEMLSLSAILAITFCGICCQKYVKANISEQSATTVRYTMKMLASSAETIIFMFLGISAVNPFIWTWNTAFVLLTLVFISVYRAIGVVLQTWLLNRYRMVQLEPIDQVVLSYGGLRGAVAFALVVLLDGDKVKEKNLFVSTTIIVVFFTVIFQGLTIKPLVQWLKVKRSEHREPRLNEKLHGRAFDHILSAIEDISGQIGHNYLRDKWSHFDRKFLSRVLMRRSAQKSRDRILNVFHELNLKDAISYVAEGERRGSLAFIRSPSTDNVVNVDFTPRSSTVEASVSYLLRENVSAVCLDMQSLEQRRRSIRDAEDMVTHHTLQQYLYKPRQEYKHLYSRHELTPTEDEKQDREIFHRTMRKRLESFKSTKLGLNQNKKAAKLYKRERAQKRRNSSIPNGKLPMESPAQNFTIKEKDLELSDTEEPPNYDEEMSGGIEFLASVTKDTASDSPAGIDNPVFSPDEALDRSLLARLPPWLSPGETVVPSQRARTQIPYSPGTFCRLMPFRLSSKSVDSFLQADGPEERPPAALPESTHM
Experimental: Stably transfected HNHE3/PS 120 cells were grown to near confluency in 24-well plates. The cells were serum-starved for 24 hours to arrest growth. ^22Na^+ uptake (1 mM) was measured during the linear phase of uptake in the presence of 1 mM ouabain and various concentrations of potential inhibitors amiloride or ethylisopropylamiloride (EIPA) following acidification with NH4Cl prepulse, as detailed previously (30).
Human brush border epithelial Na^+/H^+ exchange has been characterized as being much less sensitive to inhibition by amiloride and its 5-amino-substituted analogues than basolateral and nonepithelial membrane Na^+/H^+ exchangers (10,24,36). Therefore we determined the quantitative sensitivity of HNHE3/PS120 cells to inhibition by amiloride and EIPA by ^22Na^+ uptake studies. The concentration dependence for amiloride and EIPA inhibition of the initial rate of ^22Na^+ uptake (1 mM) into acid loaded HNHE3/PS120 cells was determined.
Three independent experiments were performed. […] FIG. 6 provides curves are from a representative experiment. Each point represents the mean percent of control ^22Na^+ uptake of duplicate experiments for each concentration of inhibitor. The curves are nonlinear least squares fits of the data assuming a single binding site for the inhibition (GraphPAD Software, Inc., San Diego, Calif.).

human NHE3 [2] = target: T1, human NHE3; experiment: Na+/H+ exchange activity by BCECF fluorescence (pHi) in HNHE3/PS120 cells; format: cell-based
Experimental: HNHE3/PS120 cells were grown to 70-80% confluency on glass coverslips, serum starved overnight to arrest growth, washed with Na^+ medium (containing in mM: 130 NaCl, 5 KCl, 2 CaCl2, 1 MgSO4, 1 NaPO4, 25 glucose, 20 HEPES, pH 7.4) and loaded with the acetoxymethyl ester of 2′,7′-bis(2-carboxyethyl)-5-(and-6)carboxyfluorescein (BCECF) as previously discussed (31). Cells were washed with TMA medium (containing in mM: 130 tetramethylammonium-C1, 5 KCl, 2 CaCl2 1 MgSO4, 1 TMA-P04, 25 glucose, 20 HEPES, pH 7.4), mounted in a cuvette, and perfused at 37° C. Cells were acidified by perfusing with 30 mM NH4Cl prepulse followed by removal of NH4Cl with TMA medium. The cuvette was then perfused with Na^+ medium. […] Na^+/H^+ exchange was determined by multiplying the initial rate of Na^+ dependent alkalinization by intracellular buffering capacity, as described.
HNHE3/PS120 cells loaded with BCECF were acidified by NH4Cl prepulse.
Serum starved HNHE3/PS120 cells were acidified by a NH4Cl prepulse and allowed to recover in 130 mM Na^+ medium until steady-state pHi was obtained.

[3] = mean of three independent experiments, read-out: Inhibition constants (IC50) of 22Na+ uptake, mean
[4] = single representative experiment, nonlinear least squares fit, read-out: IC50 of the representative curves (FIG. 6)

Row | Compound | pIC50 (Rat NHE3) | pIC50 (Rabbit NHE3) | pIC50 (human NHE3 [1]; [3]) | pIC50 (human NHE3 [1]; [4]) | ΔpHi at steady state after addition (human NHE3 [2]; FGF 10 ng/ml (n=4) or PMA 1.0 μM (n=5), 130 mM Na+ medium, controls −0.006±0.012) | time to reach new steady state pHi (average) (human NHE3 [2]; FGF 10 ng/ml or PMA 1.0 μM added at steady-state pHi) | effect on human NHE3 Na+/H+ exchange activity (in words) (human NHE3 [2]; FGF 10 ng/ml, 8-bromo-cAMP 0.5 mM, PMA 1.0 μM, at steady-state pHi)
1 | N=C(N)NC(=O)c1nc(Cl)c(N)nc1N [Amiloride, amiloride] | 4.00 | 4.41 | 4.31 | 4.23 | – | – | –
2 | CCN(c1nc(N)c(C(=O)NC(=N)N)nc1Cl)C(C)C [Ethylisopropylamiloride, ethylisopropylamiloride] | 5.62 | 5.10 | 5.18 | 5.06 | – | – | –
3 | CCCCCCCCCCCCCC(=O)O[C@@H]1[C@@H](C)[C@@]2(O)[C@@H](C=C(CO)C[C@]3(O)C(=O)C(C)=C[C@@H]23)[C@@H]2C(C)(C)[C@]12OC(C)=O [PMA, phorbol 12-myristate 13-acetate] | – | – | – | – | −0.052±0.006 | less than 2 min | inhibition of the transfected Na^+/H^+ exchanger; also recorded: inhibited
